Reference: patent US6335330B1, “Crystalline pharmaceutical product” (SmithKline Beecham Corporation, priority 1996, dated 2002)
Counter-ions that a name gives are not always drawn. Like-named read-outs stand apart in the source and are kept apart here. Blank lines part the entries; values can stand above or below the molecule they belong to.

Experiments:
Type in all cases: physicochemical
[1] = Thermal stability over an extended period (shelf life); settings: impairs shelf life
[2] = Hygroscopicity / water content (Karl Fischer analysis)
Excerpt: The present invention provides (S)-7-[(4,4′-bipiperidin- 1-yl)carbonyl]-2,3,4,5-tetrahydro-4-methyl-3-oxo-1H-1,4-benzodiazepine-2-acetic acid, hydrochloride, formula (I), as a novel material, and, in particular, as a pharmaceutically acceptable form. The material crystallizes preferably with one mole of HCl, and appears to exist in a generally anhydrous form. Although small amounts of water may be detected by Karl Fischer analysis, this is generally less than 1-2% w/w of the drug substance, and it appears to be consistent irrespective of the storage conditions. […] Accordingly, the hydrochloride salt form offers significant advantages for bulk material consistency, handling, and formulation.

[3] = Thermal stability of solid samples (3 days at 100° C., hplc); settings: for increase in organic impurities: hplc, by area
Solubility in water = assay: Solubility in water

SMILES: CN1Cc2cc(C(=O)N3CCC(C4CCNCC4)CC3)ccc2N[C@@H](CC(=O)O)C1=O [trifluoroacetate salt]
thermal stability for an extended period [1]: not thermally stable for an extended period

water taken up on equilibration ([2]; equilibrating species): about six
hygroscopicity (in words) ([2]; material prepared according to WO 95/18619): hygroscopic
Hygroscopicity (% w/w Karl Fischer analysis) ([2]; t = 0): 5.6 % w/w
Hygroscopicity (% w/w Karl Fischer analysis) ([2]; t = 21 days): 20.1 % w/w
Thermal Stability [3]: some degradation,
increase in organic impurities [3]: impurities by 1.3% (hplc,
SMILES: CN1Cc2cc(C(=O)N3CCC(C4CCNCC4)CC3)ccc2N[C@@H](CC(=O)O)C1=O [Zwitterion, (S)-7-[(4,4′-bipiperidin-1-yl)carbonyl]-2,3,4,5-tetrahydro-4-methyl-3-oxo-1H-1,4-benzodiazepine-2-acetic acid]

water detected by Karl Fischer analysis ([2]; consistent irrespective of the storage conditions): 1-2 % w/w
Hygroscopicity (% w/w Karl Fischer analysis) ([2]; t = 0, hydrochloride): 0.9 % w/w
Hygroscopicity (% w/w Karl Fischer analysis) ([2]; t = 21 days, hydrochloride): 0.8 % w/w
solubility in water relative to the zwitterion (Solubility in water): about ten
increase in organic impurities ([3]; hydrochloride): no increase
Thermal Stability ([3]; hydrochloride): Stable
SMILES: CN1Cc2cc(C(=O)N3CCC(C4CCNCC4)CC3)ccc2N[C@@H](CC(=O)O)C1=O [HCl Salt, (S)-7-[(4,4′-bipiperidin-1-yl)carbonyl]-2,3,4,5-tetrahydro-4-methyl-3-oxo-1H-1,4-benzodiazepine-2-acetic acid, hydrochloride]
dissolution and solubility in water (in words) (Solubility in water): enhanced dissolution and solubility in water
